In patent publication US20130079345A1, “[…] ACTIVE DISUBSTITUTED TRIAZINE DERIVATIVES” (BAYER INTELLECTUAL PROPERTY GMBH, priority 2010, published 2013):
Counter-ions that a name gives are not always drawn.

Tests used:
CDK9/CycT1 = molecular target: T1, CDK9/CycT1 (Homo sapiens, UniProt P50750); experiment: CDK9/CycT1 kinase assay (TR-FRET); assay type: biochemical; settings: ATP 10 μM
T1 construct: Recombinant full-length His-tagged human CDK9 and CycT1; His; purchased Invitrogen PV4131; host or cells: insect cells
T1 sequence (P50750 whole entry): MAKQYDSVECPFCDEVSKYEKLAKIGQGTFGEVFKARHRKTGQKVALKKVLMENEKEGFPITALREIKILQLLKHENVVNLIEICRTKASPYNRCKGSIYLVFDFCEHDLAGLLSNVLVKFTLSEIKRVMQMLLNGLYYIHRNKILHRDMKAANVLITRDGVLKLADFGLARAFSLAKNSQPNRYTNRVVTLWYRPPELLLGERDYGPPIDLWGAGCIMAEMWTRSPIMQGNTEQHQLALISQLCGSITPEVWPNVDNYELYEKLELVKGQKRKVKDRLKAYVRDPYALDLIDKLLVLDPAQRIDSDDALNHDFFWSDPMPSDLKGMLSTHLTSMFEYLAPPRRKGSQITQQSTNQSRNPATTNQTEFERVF
T1 sequence (O60563 whole entry partner): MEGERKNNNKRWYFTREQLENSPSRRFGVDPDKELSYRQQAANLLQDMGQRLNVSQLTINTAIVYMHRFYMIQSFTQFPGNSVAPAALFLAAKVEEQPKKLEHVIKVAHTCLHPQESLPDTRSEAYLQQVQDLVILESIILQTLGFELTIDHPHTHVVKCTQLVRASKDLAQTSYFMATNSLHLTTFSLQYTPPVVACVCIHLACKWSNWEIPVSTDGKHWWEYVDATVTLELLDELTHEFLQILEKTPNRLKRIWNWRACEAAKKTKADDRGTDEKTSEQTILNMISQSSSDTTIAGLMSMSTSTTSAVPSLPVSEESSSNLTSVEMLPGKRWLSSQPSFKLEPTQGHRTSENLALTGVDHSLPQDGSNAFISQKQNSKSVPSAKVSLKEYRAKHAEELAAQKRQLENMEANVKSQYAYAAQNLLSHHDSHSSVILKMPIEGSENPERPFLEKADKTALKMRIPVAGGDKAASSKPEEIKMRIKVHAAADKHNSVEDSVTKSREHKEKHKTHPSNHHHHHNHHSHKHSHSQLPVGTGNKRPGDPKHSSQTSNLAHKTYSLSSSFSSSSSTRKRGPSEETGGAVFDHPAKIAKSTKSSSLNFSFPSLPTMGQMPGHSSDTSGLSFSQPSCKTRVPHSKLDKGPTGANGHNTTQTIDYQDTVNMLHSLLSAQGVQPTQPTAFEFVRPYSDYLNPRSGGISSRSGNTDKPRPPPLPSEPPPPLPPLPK
Description: CDK9/CycT1-inhibitory activity of compounds of the present invention was quantified employing the CDK9/CycT1 TR-FRET assay as described in the following paragraphs.
Recombinant full-length His-tagged human CDK9 and CycT1, expressed in insect cells and purified by Ni-NTA affinity chromatography, were purchased from Invitrogen (catalogue number PV4131). A biotinylated peptide biotin-Ttds-[…] (C-terminus in amide form), which can be purchased from e.g the company JERINI Peptide Technologies (Berlin, Germany), was used as a substrate for the kinase reaction.
For the assay, 50 nl of a 100-fold concentrated solution of the test compound in DMSO was pipetted into a well of a black low-volume 384-well microtiter plate (Greiner Bio-One, Frickenhausen, Germany), 2 μl of a solution of CDK9/CycT1 in aqueous assay buffer [50 mM Tris/HCl pH 8.0], 10 mM MgCl2, 1.0 mM dithiothreitol, 0.1 mM sodium ortho-vanadate, 0.01% (v/v) Nonidet-P40 (Sigma)] were added. The mixture was incubated at 22° C. for 15 min to allow pre-binding of the test compounds to the enzyme before the start of the kinase reaction. […] The resulting mixture was incubated at 22° C. for a reaction time of 25 minutes. The concentration of CDK9/CycT1 was adjusted depending of the activity of the enzyme lot and was chosen appropriately for measurements in the linear range of the assay. Typical concentrations were in the range of 1 μg/ml. The reaction was stopped by the addition of 5 μl of a solution of TR-FRET detection reagents (0.2 μM streptavidine-XL and 1 nM anti-RB(pSer807/pSer811)-antibody from BD Pharmingen [#558389] and 1.2 nM LANCE EU-W1024 labeled anti-mouse IgG antibody [Perkin-Elmer, product no. AD0077]) in an aqueous EDTA-solution (100 mM EDTA, 0.2% (w/v) bovine serum albumin in 100 mM HEPES/NaOH, pH 7.0).
The resulting mixture was incubated at 22° C. for one hour to allow the formation of a complex between the phosphorylated biotinylated peptide and the detection reagents. Subsequently, the amount of phosphorylated substrate was evaluated by measurement of the resonance energy transfer from the Eu-chelate to the streptavidine-XL. Therefore, the fluorescence emissions at 620 nm and 665 nm after excitation at 350 nm were measured in a HTRF reader, e.g. a Rubystar (BMG Labtechnologies, Offenburg, Germany) or a Viewlux (Perkin-Elmer). The ratio of the emissions at 665 nm and at […] was taken as a measure for the amounts of phosphorylated substrate. The data were normalised, i.e. enzyme reaction without inhibitor corresponds to 0% inhibition, and all other assay components in the absence of the enzyme correspond to 100% inhibition. IC50 values were calculated by a 4-parameter fit using in-house software.

CDK8/Cyclin C = molecular target: T2, CDK8/Cyclin C (Homo sapiens, UniProt P49336); experiment: LanthaScreen Eu Kinase Binding Assay, CDK8; settings: tracer 236, read-out: Affinity (Kd) CDK8
T2 construct: purchased Invitrogen
T2 sequence (P49336 whole entry): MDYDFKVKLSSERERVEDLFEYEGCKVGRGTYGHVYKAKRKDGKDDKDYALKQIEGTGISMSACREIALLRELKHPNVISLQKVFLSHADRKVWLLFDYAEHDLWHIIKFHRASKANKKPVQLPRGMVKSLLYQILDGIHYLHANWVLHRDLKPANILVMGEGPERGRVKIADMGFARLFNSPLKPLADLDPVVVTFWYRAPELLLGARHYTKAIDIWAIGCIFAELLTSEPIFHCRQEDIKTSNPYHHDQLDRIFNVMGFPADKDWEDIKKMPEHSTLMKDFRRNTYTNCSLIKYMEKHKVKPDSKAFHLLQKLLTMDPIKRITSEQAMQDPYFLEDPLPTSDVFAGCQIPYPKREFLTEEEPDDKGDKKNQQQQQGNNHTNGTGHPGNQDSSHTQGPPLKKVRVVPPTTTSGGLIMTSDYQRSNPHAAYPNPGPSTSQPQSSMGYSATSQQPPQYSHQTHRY
T2 sequence (P24863 whole entry partner): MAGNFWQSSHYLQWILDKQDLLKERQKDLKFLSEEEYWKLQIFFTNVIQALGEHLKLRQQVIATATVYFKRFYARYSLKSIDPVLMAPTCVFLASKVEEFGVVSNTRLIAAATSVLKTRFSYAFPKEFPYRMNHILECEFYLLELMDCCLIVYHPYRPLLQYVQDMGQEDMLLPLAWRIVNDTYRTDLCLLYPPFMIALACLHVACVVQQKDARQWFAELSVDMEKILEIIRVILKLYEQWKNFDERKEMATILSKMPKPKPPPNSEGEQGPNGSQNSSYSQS
Protocol: This protocol describes how the LanthaScreen Eu Kinase Binding Assay was performed to determine dissociation constants (Kd) of compounds of general formula (I) and CDK/Cyclin complexes. The principle behind this assay is based upon the binding and displacement of an Alexa Fluor 647-labeled tracer, which binds to the active site of kinases. Binding of the tracer to the kinase is detected using a Eu-labeled antibody. Simultaneous binding of both the tracer and antibody to the kinase gives rise to a FRET-signal. Binding of an inhibitor to the kinase competes for binding with the tracer, resulting in a loss of FRET.
The compounds of general formula (I) summarized in Table 1 were diluted from a 10 mM DMSO stock solution 1:10 in a total volume of 15 μL DMSO. This compound predilution was then serial diluted 1:3 over 8 steps in DMSO and briefly spun down. Each compound solution was now diluted 1:33.33 in kinase buffer (HEPES: 20 mM, pH: 8.0; MgCl2: 10 mM; DTT: 1 mM; Brij-35: 0.01%), mixed thoroughly and spun down. For every sample, 5 μL of the diluted compound were mixed with 5 μL tracer working solution (e.g. 60 nM tracer 236 in kinase buffer for CDK2/Cyclin A) and 5 μL CDK/Cyclin/Anti-GST-AB-working solution (e.g. 15 nM CDK2/Cyclin A, 1:250 dilution of Anti-GST-AB in kinase buffer) in a well of a small volume 384 well plate (Corning Incorporated, Corning, N.Y., USA; order no. 3673). […] For positive controls, in each well 5 μL of DMSO working solution (3% DMSO diluted in kinase buffer) was mixed with 5 μL CDK/Cyclin/Anti-GST-AB-working solution: (e.g. 15 nM CDK2/Cyclin A, 1:250 dilution of Anti-GST-AB in kinase buffer) and 5 μL Tracer working solution (e.g. 60 nM Tracer 236 in kinase buffer for CDK2/Cyclin A). Positive and negative controls were calculated from at least 8 different sample wells. The 384 well plates were mixed in a Teleshaker plate mixer (Beckman Coulter, Brea, Calif., USA) at 2000 rpm for 40 sec, and incubated for 1 h at room temperature before reading. The FRET signal was measured at 340 nm excitation, 665 nm and 615 nm emission (for the kinase tracer and LanthaScreen Eu-AB, respectively) with an Envision spectrophotometer (Perkin Elmer, Waltham, Mass., USA) with 50 μs delay and 300 μs integration time. Kd values were determined from the sigmoidal dose response curves with the software Quattro Workflow (Quattro GmbH, Munich, Germany).

Structure (SMILES)	IC50 (CDK9/CycT1; values in nM)	Kd (CDK8/Cyclin C)	IC50 (CDK9/CycT1; values given in μM)
COc1cc(F)ccc1-c1ncnc(Nc2cccc(CS(N)(=O)=O)c2)n1 [B2′, 1-(3-{[4-(4-fluoro-2-methoxyphenyl)-1,3,5-triazin-2-yl]amino}phenyl)methanesulfonamide hydrochloride]	14 nM	–	–
COc1cc(F)ccc1-c1ncnc(Nc2cccc(CS(N)(=O)=O)c2)n1 [B2″, 1-(3-{[4-(4-fluoro-2-methoxyphenyl)-1,3,5-triazin-2-yl]amino}phenyl)methanesulfonamide trifluoroacetic acid salt]	–	> 10 µM	–
NS(=O)(=O)Cc1cccc(Nc2ncnc(-c3ccccc3OCc3ccccc3)n2)c1 [B13′, 3-[(4-(2-Benzyloxyphenyl)-1,3,5-triazin-2-yl)amino]benzenemethanesulfonamide trifluoroacetic acid salt]	–	4.86 µM	–
COc1ccccc1-c1ncnc(Nc2cccc(CS(N)(=O)=O)c2)n1 [Compound B1, 3-[(4-(2-Methoxyphenyl)-1,3,5-triazin-2-yl)amino]benzenemethanesulfonamide]	21 nM	–	–
COc1cc(F)ccc1-c1ncnc(Nc2cccc(CS(N)(=O)=O)c2)n1 [Compound B2, 3-[(4-(4-Fluoro-2-methoxyphenyl)-1,3,5-triazin-2-yl)amino]benzenemethanesulfonamide]	8.1 nM	–	–
COc1cccc(F)c1-c1ncnc(Nc2cccc(CS(N)(=O)=O)c2)n1 [Compound B4, 3-[(4-(6-Fluoro-2-methoxyphenyl)-1,3,5-triazin-2-yl)amino]benzenemethanesulfonamide]	–	> 10 µM	–
COc1cc(Cl)ccc1-c1ncnc(Nc2cccc(CS(N)(=O)=O)c2)n1 [Compound B6, 3-[(4-(4-Chloro-2-methoxyphenyl)-1,3,5-triazin-2-yl)amino]benzenemethanesulfonamide]	–	6.78 µM	–
CCOc1ccccc1-c1ncnc(Nc2cccc(CS(N)(=O)=O)c2)n1 [Compound B12, 3-[(4-(2-Ethoxyphenyl)-1,3,5-triazin-2-yl)amino]benzenemethanesulfonamide]	–	> 10 µM	–
NS(=O)(=O)Cc1cccc(Nc2ncnc(-c3ccccc3OCc3ccccc3)n2)c1 [Compound B13, 3-[(4-(2-Benzyloxyphenyl)-1,3,5-triazin-2-yl)amino]benzenemethanesulfonamide]	3.2 nM	–	–
NS(=O)(=O)Cc1cccc(Nc2ncnc(-c3ccccc3Oc3ccccc3)n2)c1 [Compound B14, 1-(3-{[4-(2-phenoxyphenyl)-1,3,5-triazin-2-yl]amino}phenyl)methanesulfonamide]	62 nM	5.7 µM	–
NS(=O)(=O)Cc1cccc(Nc2ncnc(-c3ccccc3OCc3ccncc3)n2)c1 [Compound B16, 3-[(4-(2-((4-Pyridinyl)methoxy)phenyl)-1,3,5-triazin-2-yl)amino]benzenemethanesulfonamide]	–	> 10 µM	–
CC(C)Oc1cc(F)ccc1-c1ncnc(Nc2cccc(CS(N)(=O)=O)c2)n1 [Compound U2, 1-[3-({4-[4-fluoro-2-(propan-2-yloxy)phenyl]-1,3,5-triazin-2-yl}amino)phenyl]methanesulfonamide]	28 nM	–	–
N#Cc1cc(F)ccc1-c1ncnc(Nc2cccc(CS(N)(=O)=O)c2)n1 [Compound U3, 1-(3-{[4-(2-cyano-4-fluorophenyl)-1,3,5-triazin-2-yl]amino}phenyl)methanesulfonamide]	–	–	3300 nM
COc1cc(F)c(F)cc1-c1ncnc(Nc2cccc(CS(N)(=O)=O)c2)n1 [Compound U7, 1-(3-{[4-(4,5-difluoro-2-methoxyphenyl)-1,3,5-triazin-2-yl]amino}phenyl)methanesulfonamide]	14 nM	–	–
COc1cc(F)ccc1-c1ncnc(Nc2ccc(S(C)(=O)=O)nc2)n1 [Compound U8, 4-(4-fluoro-2-methoxyphenyl)-N-[6-(methylsulfonyl)pyridin-3-yl]-1,3,5-triazin-2-amine]	320 nM	–	–
CNS(=O)(=O)Cc1cccc(Nc2cc(-c3ccccc3OC)ncn2)c1 [Ref2, C-{3-[6-(2-Methoxy-phenyl)-pyrimidin-4-ylamino]-phenyl}-N-methyl methanesulfonamide, reference compound]	40 nM	–	–
COc1ccccc1-c1cc(Nc2cccc(CS(=O)(=O)N(C)C)c2)ncn1 [Ref4, C-{3-[6-(2-Methoxy-phenyl)-pyrimidin-4-ylamino]-phenyl}-N,N-dimethylmethanesulfonamide, reference compound]	49 nM	–	–
